Patent US20160376659A1, “Breast Cancer Biomarker” (The University of Manchester, priority 2015, published 2016)

What was measured:
Type in all cases: cell-based, human
[1] = tested on: NOTCH4 intracellular domain; assay: NOTCH4 intracellular domain Western Blot in MCF-7 endocrine-resistant cells; settings: endocrine-resistant models; 72 h
Method: MCF7, T47D and ZR-75-1 cell lines were purchased from American Tissue Culture Collection (ATCC) and cultured in DMEM/F-12, GlutaMAX (Gibco) with 10% FBS (Gibco). […] MCF7 resistant cell lines were authenticated by comparative karyotyping to ATCC-derived MCF7. Proteins were extracted with Protein Lysis Buffer (25 mM HEPES, 50 mM NaCl, 30 mM NaPP, 50 mM NaF, 1% Triton-X-100, 10% Glycerol, 5 mM EDTA, Protease Inhibitor cocktail, 1 μM PMSF). Lysates were placed on a rotator for 1 hour at 4° C., then were centrifuged at 10000 g at 4° C. for 10 min, and supernatants were collected. Protein concentrations were assessed using the BCA Protein Assay Kit (Thermo Scientific, 23225). Proteins were separated on a 10% gel (Biorad, 456-1033) by SDS-PAGE at 200V for 1 hour, and then were transferred on polyvinylidene difluoride (PVDF) membranes (BioRad, 170-4157) at 25 V/1,300 mA for 15 min using a Trans Blot Turbo (BioRad, 170-4155). Membranes were blocked in a solution of PBS containing 0.05% Tween-20 and 5% skimmed milk (Marvel) for 1 h at room temperature and primary antibodies were incubated overnight at 4° C. […]

[2] = tested on: Notch target genes HEY1 and HES1; assay: HEY1 and HES1 expression in TAMR, FULVR and parental MCF-7 cells; settings: TAMR and FULVR cell lines; 72 h
Method: MCF7, T47D and ZR-75-1 cell lines were purchased from American Tissue Culture Collection (ATCC) and cultured in DMEM/F-12, GlutaMAX (Gibco) with 10% FBS (Gibco). […] MCF7 resistant cell lines were authenticated by comparative karyotyping to ATCC-derived MCF7. Total RNA was extracted using the RNeasy Plus Mini Kit (QIAGEN, 74104) and the concentration and purity determined using an ND-1000 spectrophotometer (NanoDrop Technologies). Reverse transcription of 1 μg of RNA was performed with Oligo(dT) using the TaqMan Reverse Transcription Reagents from Applied Biosystems (N8080234). Samples were incubated on a thermal cycler (MJ Research) for 10 minutes at 25° C., 30 minutes at 48° C. and 5 minutes at 95° C. Quantitative real-time PCR reactions were set up in triplicate in 384-well plates and performed on the 7900 PCR machine (Applied Biosystems) using TaqMan® Universal PCR Master Mix (Applied Biosystems) and probes from Universal Probe Library (Roche). Conditions used for amplification of cDNA fragments were as follows: 95° C. for 5 min, 40 cycles of amplification-95 C for 15 sec, 60 C for 1 min. The expression levels were calculated using the ΔΔCt method and normalised to the housekeeping genes 36B4 and GAPDH. The sequences of the primers and probes used can be found in the table below.

[3] = tested on: CBF1-Notch transcriptional activity; assay: Notch transcriptional assay (10×CBF1-luciferase reporter); settings: TAMR and FULVR cell lines; 72 h
Method: MCF7 resistant cell lines were authenticated by comparative karyotyping to ATCC-derived MCF7. To measure the activation of Notch dependent transcription, cells were transfected with CBF1 firefly luciferase reporter (containing 10 copies of a CBF1 consensus sequence) and CMV-Renilla luciferase reporter. Plasmids were incubated with […] (Roche, 06366244001) in a ratio of 3:1 (μl of […] of DNA) in OptiMEM (Life Technologies, 11058-021) for 15 minutes, before addition to the culture media. After 48 hours cells were lysed with 1× Passive lysis buffer (5×, Promega, E 1941), put on the rocker for 15 minutes and luminescence was assayed with the Dual-Glo Luciferase assay system (Promega, E2920) following manufacturer's instructions. Luciferase activity was measured using a luminometer (Promega, Glomax Multi+ Detection System with Instinct Software). Luminescence of the firefly luciferase was normalised to that of the renilla luciferase.

[4] = tested on: patient-derived ER+ tumour cells; assay: Mammosphere self-renewal of patient-derived ER+ tumour cells; settings: 10^−6 M 4-hydroxy-tamoxifen vs ethanol control; secondary mammospheres 7-9 days

CBF1-Notch transcriptional activity [3]	SMILES	levels of the active NOTCH4 intracellular domain [1]	HEY1 and HES1 expression [2]	mammosphere self-renewal [4]
inhibited	CC(C)(C(=O)NCC(F)(F)C(F)(F)F)C(=O)N[C@@H]1C(=O)Nc2ccccc2-c2ccccc21 [RO4929097]	effective in reducing	inhibited	–
–	CC/C(=C(\c1ccccc1)c1ccc(OCCN(C)C)cc1)c1ccccc1 [tamoxifen, (Z)-2-[4-(1,2-diphenylbut-1-enyl)phenoxy]-N,N-dimethylethanamine]	–	–	about two-fold
